{"source": "ChEMBL document CHEMBL1132060", "about": "“Octa- and nonaprenylhydroquinone sulfates, inhibitors of alpha1,3-fucosyltransferase VII, from an Australian marine sponge Sarcotragus sp” (Bioorg Med Chem Lett, 1999)", "experiment": "Inhibitory activity against fuc-TVII"}
{"smiles": "CC(C)=CCC/C(C)=C/CC/C(C)=C/CC/C(C)=C/CC/C(C)=C/CC/C(C)=C/CC/C(C)=C/CC/C(C)=C/CC/C(C)=C/Cc1cc(O)ccc1OS(=O)(=O)[O-].[Na+]", "values": [{"measurement": "IC50", "result": 2.4, "unit": "µg/mL"}]}
{"smiles": "CC(C)=CCC/C(C)=C/CC/C(C)=C/CC/C(C)=C/CC/C(C)=C/CC/C(C)=C/CC/C(C)=C/CC/C(C)=C/Cc1cc(O)ccc1OS(=O)(=O)[O-].[Na+]", "values": [{"measurement": "IC50", "result": 3.9, "unit": "µg/mL"}]}
